# Source: PubChem BioAssay (NCI)
#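 A five-concentration, 48-hour dose response in 96-well plates underlies each endpoint, interpolated linearly between surrounding concentrations. At the GI50, growth is halved. TGI denotes the concentration required for complete inhibition of growth.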
# Tests used:
# Assay in all cases: DTP human tumour cell line panel, 48 h
# UACC-62 melanoma = tested on: UACC-62 melanoma
# CAKI-1 renal = tested on: CAKI-1 renal
# NCI-H23 lung = tested on: NCI-H23 lung
# HS 578T breast = tested on: HS 578T breast
# BT-549 breast = tested on: BT-549 breast
# U251 CNS = tested on: U251 CNS
# TK-10 renal = tested on: TK-10 renal
# M14 melanoma = tested on: M14 melanoma
# SF-539 CNS = tested on: SF-539 CNS
# HCC-2998 colon = tested on: HCC-2998 colon
SMILES,TGI (UACC-62 melanoma) [µM],TGI (CAKI-1 renal) [µM],TGI (NCI-H23 lung) [µM],TGI (HS 578T breast) [µM],TGI (BT-549 breast) [µM],TGI (U251 CNS) [µM],TGI (TK-10 renal) [µM],TGI (M14 melanoma) [µM],TGI (SF-539 CNS) [µM],TGI (HCC-2998 colon) [µM],GI50 (UACC-62 melanoma) [µM],GI50 (CAKI-1 renal) [µM],GI50 (NCI-H23 lung) [µM],GI50 (HS 578T breast) [µM],GI50 (BT-549 breast) [µM],GI50 (U251 CNS) [µM],GI50 (TK-10 renal) [µM],GI50 (M14 melanoma) [µM],GI50 (SF-539 CNS) [µM],GI50 (HCC-2998 colon) [µM]
O=C(O)/C=C\C(=O)Nc1ccc2c(c1)C(=O)c1cc(F)ccc1-2,> 100,> 100,> 100,> 100,> 100,> 100,> 100,> 100,> 100,,,,,,,,,,,
ClC[Si]12OCCN(CCO1)CCO2,> 100,> 100,> 100,,,> 100,> 100,,> 100,> 100,,,,,,,,,,
Oc1cc2ccccc2cc1-c1n[nH]c(=S)n1-c1ccc(Cl)cc1,28.8,39.4,60.3,90.2,> 100,90.9,63,> 100,50.8,,7.88,12.5,20,12.4,16.2,13,18.9,15.1,15.3,
O=S(=O)(NCCCNc1cc(-c2cn(-c3ccccc3)nc2-c2cccc(O)c2)ccn1)c1ccc(Cl)cc1,3.67,12,4.98,4.77,,3.47,8.97,3.2,3.79,3.46,1.67,2.3,1.64,1.16,,1.35,3.16,1.6,1.77,1.82
O=C1C(Cl)=C(Nc2cccc(O)c2)C(=O)N1c1cccc(Cl)c1Cl,34,20.2,34.6,14.4,61.2,30.8,80,31.7,,,14.6,3.14,14.4,1.71,24.5,12.4,20.2,14.8,,
CN1CCCCC1CCN1c2ccccc2Sc2ccc(S(C)=O)cc21 (configuration not stated),> 100,> 100,> 100,> 100,> 100,> 100,> 100,> 100,> 100,,,,,,,,,,,
COc1ccc(CC2C3=C(CCCC3)CCN2C)cc1 (configuration not stated),> 100,> 100,> 100,> 100,,> 100,> 100,> 100,> 100,> 100,,,,,,,,,,
COc1ccc(Cn2c(Br)c3c(c2-c2cc(OC)c(OC)c(OC)c2)CCc2sc(NC(C)=O)nc2-3)cc1,> 100,> 100,> 100,,19.4,> 100,37.6,> 100,6.79,> 100,4.29,4.21,8.6,,3.18,3.69,6.17,3.57,2.41,3.58
CN(C)/C=N/c1nc2ncn(CCOC(=O)c3ccccc3)c2c(=O)[nH]1,> 100,> 100,,,,> 100,> 100,> 100,> 100,,,,,,,,,,,
Cc1nc2cc(N)c(Cl)cc2[nH]1,> 100,> 100,> 100,> 100,> 100,> 100,> 100,> 100,,,,,,,,,,,,
N#CC1=C(c2ccccc2)C(O)(c2ccccc2)NC1=O (configuration not stated),> 100,> 100,> 100,,,> 100,> 100,> 100,63.3,> 100,,,,,,,,,,
CC(Oc1ccc2cc(C(=O)c3ccccc3)c(=O)oc2c1)C(=O)O (configuration not stated),> 100,> 100,> 100,,,> 100,> 100,> 100,> 100,> 100,,,,,,,,,,
COc1ccc(C(=O)O)c(Cc2ccc3ccccc3c2)c1,> 100,> 100,> 100,,,> 100,> 100,> 100,> 100,,,,,,,,,,,
CCN(CC)CC(O)C1CCC(c2ccccc2)CC1 (configuration not stated),30.9,42.2,> 100,> 100,,62.7,31.2,80.4,40.2,11.5,,,,,,,,,,
O=C1C(N2C(=O)c3ccccc3C2=O)CN1C(COCc1ccccc1)c1ccc(OCc2ccccc2)cc1 (configuration not stated),> 100,> 100,> 100,,,> 100,> 100,> 100,> 100,> 100,,,,,,,,,,
c1ccc(C2N3CCCCC3[C@@H]3c4[nH]c5ccccc5c4CCN23)cc1 (some centres not stated),> 100,> 100,> 100,,,> 100,> 100,> 100,> 100,> 100,,,,,,,,,,
COc1ccc(/C(C)=N/NC(N)=S)c(OC)c1,> 100,> 100,> 100,,,> 100,> 100,> 100,> 100,> 100,,,,,,,,,,

SMILES,TGI (UACC-62 melanoma) [µM],TGI (CAKI-1 renal) [µM],TGI (NCI-H23 lung) [µM],TGI (HS 578T breast) [µM],TGI (BT-549 breast) [µM],TGI (U251 CNS) [µM],TGI (TK-10 renal) [µM],TGI (M14 melanoma) [µM],TGI (SF-539 CNS) [µM],TGI (HCC-2998 colon) [µM],GI50 (UACC-62 melanoma) [µM],GI50 (CAKI-1 renal) [µM],GI50 (NCI-H23 lung) [µM],GI50 (HS 578T breast) [µM],GI50 (BT-549 breast) [µM],GI50 (U251 CNS) [µM],GI50 (TK-10 renal) [µM],GI50 (M14 melanoma) [µM],GI50 (SF-539 CNS) [µM],GI50 (HCC-2998 colon) [µM]
COc1cc(-c2cc(CCC(=O)Nc3ccccc3[N+](=O)[O-])n(-c3ccc([N+](=O)[O-])cc3[N+](=O)[O-])n2)ccc1O,> 100,> 100,> 100,,,> 100,> 100,> 100,> 100,> 100,> 10,> 100,> 100,,,> 100,> 100,> 100,> 100,> 100
Cc1cccc(NC(=O)CC#N)c1Cl,> 100,> 100,> 100,,,> 100,> 100,> 100,> 100,,,,,,,,,,,
CC1(C)OC(=O)C(=C2CC(c3ccccc3)c3ccccc32)C(=O)O1 (configuration not stated),,> 100,> 100,,,> 100,> 100,> 100,> 100,> 100,,,,,,,,,,
BrC12c3ccccc3Sc3ccccc3C1(Br)c1ccccc12 (configuration not stated),46.6,72.9,,,,33.7,99.6,28.8,34.6,> 100,,,,,,,,,,
CC1=C(C(=O)Nc2ccccc2C)C(c2ccc(C3C(C(=O)Nc4ccccc4C)=CNC=C3C(=O)Nc3ccccc3C)cc2)C(C(=O)Nc2ccccc2C)=C(C)N1,31.9,45.7,36.5,,,24.7,> 100,33,19.6,31.8,,,,,,,,,,
CC(=O)OCC1OC(Sc2ccccn2)C=CC1OC(C)=O (configuration not stated),> 100,,> 100,,,> 100,> 100,> 100,> 100,> 100,,,,,,,,,,
Oc1cc2c(cc1O)-c1[nH]ncc1CC2,90.4,> 100,> 100,,,44.6,> 100,> 100,> 100,50.7,,,,,,,,,,
COc1ccc(-c2coc3cc(OC)cc(O)c3c2=O)cc1,> 100,> 100,> 100,> 100,,> 100,84.4,> 100,> 100,> 100,,,,,,,,,,
CC(C)CC(=O)NS(=O)(=O)c1ccccc1,> 100,> 100,> 100,,,> 100,> 100,> 100,> 100,> 100,,,,,,,,,,
CC1=C(c2cc(C(=O)Nc3nccs3)nc(NC#N)n2)Sc2ccccc2N1,> 100,> 100,> 100,,,> 100,> 100,> 100,> 100,,,,,,,,,,,
CN(C)/C(N)=N/C(N)=S,> 100,> 100,> 100,,,> 100,> 100,> 100,> 100,> 100,,,,,,,,,,
O=C(c1ccc2c3c(ccc(C(=O)C(F)(F)F)c13)CC2)C(F)(F)F,> 100,> 100,> 100,,,> 100,> 100,> 100,> 100,> 100,,,,,,,,,,
CC(O[Si](C)(C)C)C1C=CC(C)n2c(=O)n(-c3ccccc3)c(=O)n21 (configuration not stated),> 100,> 100,> 100,,,> 100,> 100,> 100,> 100,> 100,,,,,,,,,,
CCC(/C(=N\Nc1c(Cl)cc(Cl)cc1Cl)c1ccccc1)n1ccnc1C (configuration not stated),36.7,25.8,25.3,,,28.4,28.2,28.6,31.1,15.7,,,,,,,,,,
O=C(O)C1OC(Oc2cc(O)c3c(=O)cc(-c4ccc(O)cc4)oc3c2)C(O)C(O)C1O (configuration not stated),,> 100,> 100,,,> 100,> 100,> 100,> 100,> 100,,,,,,,,,,
O=C1OC2C(O)C(=O)OC2C1O (configuration not stated),> 100,> 100,> 100,,,> 100,,> 100,> 100,> 100,,,,,,,,,,
CCC/C(=N\NC(=O)c1cc2ccccc2cc1O)C(CC)C(=O)CCC(=O)N(Cc1ccccc1)Cc1ccccc1 (configuration not stated),70,> 100,> 100,,,> 100,> 100,> 100,> 100,> 100,,,,,,,,,,
